# According to patent US9440957B2, “Compounds and compositions for modulating EGFR Activity” (Novartis AG, priority 2012, dated 2016):
# Like-named read-outs stand apart in the source and are kept apart here.
# Experiments:
# [1] = target: human EGFR L858R/T790M (NIH/3T3 cells) (Homo sapiens, UniProt P00533, L858R/T790M); assay: EGFR target modulation in engineered NIH/3T3 cell lines (phospho-EGFR Y1068 AlphaLISA), EGFR L858R/T790M; assay type: cell-based; conditions: engineered NIH/3T3 cells, read-out: NIH3T3 IC50 (μM) EGFR (L858R/T790M)
# Summary of the method: (§1)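 Engineered NIH/3T3 cells expressing EGFR variants treated 3 h at 37 °C with 12-point 1:3 compound series (top stock 10 μM); only WT cells stimulated with 50 ng/ml EGF for 5 min before lysis. Phospho-Y1068 measured by AlphaLISA with total-EGFR antibody; IC50 from non-linear fitting.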
# [2] = target: human EGFR WT (NIH/3T3 cells, EGF-induced) (Homo sapiens, UniProt P00533); assay: EGFR target modulation in engineered NIH/3T3 cell lines (phospho-EGFR Y1068 AlphaLISA), EGFR WT; assay type: cell-based; conditions: engineered NIH/3T3 cells, read-out: NIH3T3 IC50 (μM) EGFR (WT)
# Summary of the method: as §1
# EGFR(L858R/T790M) = target: T1, EGFR(L858R/T790M) (Homo sapiens, UniProt P00533, L858R/T790M); assay: EGFR biochemical assay (HTRF), IC50 determinations
# T1 construct: purchased from Carna (GST-a.a. 669-1210)
# Summary of the method: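 Two formats were run: compound preincubated at room temperature with enzyme and biotin-TK peptide before ATP starts the reaction, or no preincubation with enzyme added last. Reactions ran 60 min at room temperature and were stopped with EDTA. Phosphopeptide was read by HTRF (PT66K/SAXL, 1 h).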
# HCC827 (Del E746-A750) = HCC827 (Del E746-A750) (Homo sapiens, UniProt P00533, DEL746-750); assay: EGFR target modulation in HCC827 cell line (phospho-EGFR Y1173 ELISA); assay type: cell-based
# Protocol: EGFR Target Modulation in H1975, H3255 and HCC827 Cell Lines Tissue Culture. Cells were maintained in 10% FBS/RPMI supplemented with 100 μg/ml Penicillin/Streptomycin (Hyclone #SH30236.01). […] The cells were allowed to incubate overnight in a 37° C., 5% CO2 humidified tissue culture incubator. […] The serial diluted compounds were transferred to the plate containing cells by using a 50 nl Pin Head device (Perkin Elmer) and the cells were placed back in the incubator for 3 hours. Phospho-EGFR ([…]) Target Modulation Assay. The media was reduced to 20 ul using a Bio-Tek ELx 405 SelectTM plate washer. […] The plates were shaken at 4° C. for 20 minutes. An aliquot of 25 ul from each well was transferred to pEGFR(Y1173) ELISA plates for analysis. Phospho-EGFR ([…]) ELISA. Solid white high-binding ELISA plates (Greiner #781074) were coated with 5 ug/ml anti-EGFR capture antibody (R&D Systems #AF231) overnight in 50 mM carbonate/bicarbonate pH 9.5 buffer. Plates were blocked with 1% BSA (Sigma #A7030) in PBS for 1 hour at room temperature. Wash steps were carried out with a Bio-Tek ELx405 SelectTM using 4 cycles of 100 ul TBS-T (20 mM Tris, 137 mM NaCl, 0.05% Tween-20) per well. […] Lysis was allowed to occur for 20 minutes on ice. A 25 ul aliquot was added to each well of the blocked ELISA plate and incubated overnight at 4° C. with gentle shaking. […] After washing, 1:2,000 anti-rabbit-HRP (Cell Signaling #7074) in 0.2% BSA/TBS-T was added and incubated for 1 hour at room temperature. Chemiluminescent detection was carried out with SuperSignal ELISA Pico substrate (ThermoScientific #37069). Signal was read on EnVision plate reader using built-in UltraLUM setting. Data Analysis. Control cells treated with EGF were set to 100% maximum response. […] With these parameters, the IC50's for each compound in each cell line was calculated using non-linear curve fitting analysis.
# [3] = target: human EGFR L858R (NIH/3T3 cells) (Homo sapiens, UniProt P00533, L858R); assay: EGFR target modulation in engineered NIH/3T3 cell lines (phospho-EGFR Y1068 AlphaLISA), EGFR L858R; assay type: cell-based; conditions: engineered NIH/3T3 cells, read-out: NIH3T3 IC50 (μM) EGFR (L858R)
# Summary of the method: as §1
# H3255 (EGFR L858R) = H3255 (EGFR L858R) (Homo sapiens, UniProt P00533, L858R); assay: EGFR target modulation in H3255 cell line (phospho-EGFR Y1173 ELISA); assay type: cell-based
# Summary of the method: (§2)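 Phospho-EGFR Y1173 levels were measured by chemiluminescent capture ELISA in lysates of cells exposed to compound for 3 hours at 37 °C. Inhibition was normalised to EGF-stimulated control cells taken as maximal response, and IC50 values were obtained by non-linear curve fitting.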
# HEKn (EGFR WT) = HEKn (EGFR WT) (Homo sapiens, UniProt P00533); assay: EGFR target modulation in HEKn (EGFR-WT) cell line (phospho-EGFR Y1173 ELISA); assay type: cell-based; conditions: value outside parentheses
# Summary of the method: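 Read-out was Y1173 phosphorylation, measured by chemiluminescent ELISA with anti-EGFR capture of lysates. HEKn keratinocytes (wild-type EGFR) were treated with compound for 3 h.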
# H1975 (EGFR L858/T790M) = H1975 (EGFR L858/T790M) (Homo sapiens, UniProt P00533, L858R/T790M); assay: EGFR target modulation in H1975 cell line (phospho-EGFR Y1173 ELISA); assay type: cell-based
# Summary of the method: as §2
# [4] = EGFR (L858R/T790M) with 90 min pre-incubation, read-out: IC50 (μM) Column B
# [5] = EGFR (L858R/T790M) with no pre-incubation, read-out: IC50 (μM) Column A
# T1 sequence (P00533 669-1210 T790M/L858R): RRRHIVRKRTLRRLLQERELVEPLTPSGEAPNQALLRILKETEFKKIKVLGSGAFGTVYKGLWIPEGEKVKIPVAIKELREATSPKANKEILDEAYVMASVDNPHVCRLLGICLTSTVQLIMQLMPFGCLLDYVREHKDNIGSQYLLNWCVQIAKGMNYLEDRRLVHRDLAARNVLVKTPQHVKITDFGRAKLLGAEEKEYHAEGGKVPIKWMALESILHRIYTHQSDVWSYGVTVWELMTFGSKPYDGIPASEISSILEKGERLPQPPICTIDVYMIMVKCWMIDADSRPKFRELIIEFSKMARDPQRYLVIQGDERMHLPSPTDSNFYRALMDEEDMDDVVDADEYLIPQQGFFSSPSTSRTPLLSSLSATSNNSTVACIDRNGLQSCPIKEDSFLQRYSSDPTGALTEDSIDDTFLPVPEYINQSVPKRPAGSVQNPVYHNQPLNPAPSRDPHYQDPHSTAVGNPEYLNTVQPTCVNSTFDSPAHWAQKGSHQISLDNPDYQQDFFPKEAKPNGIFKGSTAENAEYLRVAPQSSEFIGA
# Chain of HCC827 (Del E746-A750) (P00533 with tags, fused parts or gaps DEL746-750): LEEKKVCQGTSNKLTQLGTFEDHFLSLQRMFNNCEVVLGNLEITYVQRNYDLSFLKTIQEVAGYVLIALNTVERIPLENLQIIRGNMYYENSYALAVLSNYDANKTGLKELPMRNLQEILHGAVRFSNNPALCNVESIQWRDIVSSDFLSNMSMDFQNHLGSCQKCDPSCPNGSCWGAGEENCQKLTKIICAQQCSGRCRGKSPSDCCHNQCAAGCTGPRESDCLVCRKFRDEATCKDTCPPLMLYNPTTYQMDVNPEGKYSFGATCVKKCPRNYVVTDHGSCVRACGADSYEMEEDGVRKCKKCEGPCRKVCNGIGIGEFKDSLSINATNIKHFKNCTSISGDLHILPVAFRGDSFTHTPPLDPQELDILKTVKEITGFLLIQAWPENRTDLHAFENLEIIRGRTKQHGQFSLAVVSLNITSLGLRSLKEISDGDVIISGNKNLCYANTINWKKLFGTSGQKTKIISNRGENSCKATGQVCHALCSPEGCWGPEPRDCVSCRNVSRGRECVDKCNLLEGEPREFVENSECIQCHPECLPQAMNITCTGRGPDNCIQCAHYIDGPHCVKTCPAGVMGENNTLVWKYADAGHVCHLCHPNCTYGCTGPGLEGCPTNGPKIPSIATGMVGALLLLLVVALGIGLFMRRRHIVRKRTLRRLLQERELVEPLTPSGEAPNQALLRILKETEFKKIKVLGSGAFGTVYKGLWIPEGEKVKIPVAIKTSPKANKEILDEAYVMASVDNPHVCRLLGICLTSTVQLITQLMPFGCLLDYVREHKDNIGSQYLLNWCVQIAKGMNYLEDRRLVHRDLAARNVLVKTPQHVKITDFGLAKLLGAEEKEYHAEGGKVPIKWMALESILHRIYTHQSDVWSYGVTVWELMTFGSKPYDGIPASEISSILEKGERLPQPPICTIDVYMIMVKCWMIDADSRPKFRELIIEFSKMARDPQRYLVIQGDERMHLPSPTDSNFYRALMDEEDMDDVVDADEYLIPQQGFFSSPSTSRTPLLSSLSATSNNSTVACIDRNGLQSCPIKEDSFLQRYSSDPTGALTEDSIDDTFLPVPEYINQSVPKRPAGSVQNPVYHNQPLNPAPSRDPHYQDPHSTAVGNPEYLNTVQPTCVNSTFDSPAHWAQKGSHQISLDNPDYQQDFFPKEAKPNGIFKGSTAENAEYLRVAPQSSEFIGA
# Chain of human EGFR WT (NIH/3T3 cells, EGF-induced) (P00533 25-1210): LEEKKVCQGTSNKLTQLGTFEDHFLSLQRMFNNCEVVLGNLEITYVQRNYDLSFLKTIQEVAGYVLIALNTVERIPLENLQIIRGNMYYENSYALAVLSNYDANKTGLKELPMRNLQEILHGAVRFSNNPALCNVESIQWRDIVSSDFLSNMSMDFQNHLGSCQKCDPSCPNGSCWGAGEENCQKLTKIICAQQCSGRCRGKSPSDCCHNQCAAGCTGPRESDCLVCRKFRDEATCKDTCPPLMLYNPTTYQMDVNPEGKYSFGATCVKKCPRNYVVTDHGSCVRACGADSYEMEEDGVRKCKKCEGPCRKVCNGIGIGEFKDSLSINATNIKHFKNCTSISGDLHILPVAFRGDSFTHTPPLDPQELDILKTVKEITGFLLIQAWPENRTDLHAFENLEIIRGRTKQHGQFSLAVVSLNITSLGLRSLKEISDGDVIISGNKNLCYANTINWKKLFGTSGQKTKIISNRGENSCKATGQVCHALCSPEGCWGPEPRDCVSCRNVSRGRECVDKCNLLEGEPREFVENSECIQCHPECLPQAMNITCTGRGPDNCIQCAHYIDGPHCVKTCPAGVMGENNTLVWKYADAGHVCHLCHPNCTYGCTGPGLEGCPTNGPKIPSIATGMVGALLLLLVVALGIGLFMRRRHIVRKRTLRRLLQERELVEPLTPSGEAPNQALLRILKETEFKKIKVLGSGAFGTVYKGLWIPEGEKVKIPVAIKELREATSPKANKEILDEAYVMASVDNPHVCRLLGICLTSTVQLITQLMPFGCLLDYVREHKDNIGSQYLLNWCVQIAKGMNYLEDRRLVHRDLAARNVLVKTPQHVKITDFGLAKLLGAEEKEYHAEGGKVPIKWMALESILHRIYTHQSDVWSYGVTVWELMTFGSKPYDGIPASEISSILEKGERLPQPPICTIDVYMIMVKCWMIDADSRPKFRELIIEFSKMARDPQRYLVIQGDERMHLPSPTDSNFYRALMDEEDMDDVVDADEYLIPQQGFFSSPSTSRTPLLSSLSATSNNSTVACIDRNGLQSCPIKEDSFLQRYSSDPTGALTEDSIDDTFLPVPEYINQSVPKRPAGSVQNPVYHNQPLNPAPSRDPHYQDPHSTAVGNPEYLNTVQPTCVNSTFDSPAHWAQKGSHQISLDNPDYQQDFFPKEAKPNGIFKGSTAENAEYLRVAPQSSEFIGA
# Chain of HEKn (EGFR WT) (P00533 25-1210): as above
Structure (SMILES),IC50 [1] [µM],IC50 [2] [µM],IC50 (EGFR(L858R/T790M); [4]) [µM],IC50 (EGFR(L858R/T790M); [5]) [µM],IC50 (HCC827 (Del E746-A750)) [nM],IC50 [3] [µM],IC50 (H3255 (EGFR L858R)) [nM],IC50 (HEKn (EGFR WT)) [nM],IC50 (H1975 (EGFR L858/T790M)) [nM]
"Cc1cc(C(=O)Nc2nc3cccc(Cl)c3n2[C@@H]2CCCCN(C(=O)/C=C/CN3CCCC3)C2)ccn1 [Example 1, (R,E)-N-(7-chloro-1-(1-(4-(pyrrolidin-1-yl)but-2-enoyl)azepan-3-yl)-1H-benzo[d]imidazol-2-yl)-2-methylisonicotinamide]",0.004,0.152,< 0.001,0.007,2,0.004,12,450,8
"Cc1cc(C(=O)Nc2nc3cccc(Cl)c3n2[C@@H]2CCCCN(C(=O)/C=C/CN3CC(F)C3)C2)ccn1 [Example 2, (R,E)-N-(7-chloro-1-(1-(4-(3-fluoroazetidin-1-yl)but-2-enoyl)azepan-3-yl)-1H-benzo[d]imidazol-2-yl)-2-methylisonicotinamide]",0.011,0.183,< 0.001,0.01,< 1,0.008,15,910,10
Cc1cc(C(=O)Nc2nc3cccc(Cl)c3n2[C@@H]2CCCCN(C(=O)/C=C/CN3CCC(F)(F)C3)C2)ccn1 [Example 3-3],0.174,> 7.6,0.011,0.156,108,0.157,320,6400,249
CO[C@@H]1CCN(C/C=C/C(=O)N2CCCC[C@@H](n3c(NC(=O)c4ccnc(C)c4)nc4cccc(Cl)c43)C2)C1 [Example 3-4],0.005,0.058,< 0.001,0.005,< 1,0.003,7,320,6
CO[C@H]1CCN(C/C=C/C(=O)N2CCCC[C@@H](n3c(NC(=O)c4ccnc(C)c4)nc4cccc(Cl)c43)C2)C1 [Example 3-5],0.006,0.259,< 0.001,0.007,< 1,0.006,12,580,8
Cc1cc(C(=O)Nc2nc3cccc(Cl)c3n2[C@@H]2CCCCN(C(=O)/C=C/CN3CC[C@@H](O)C3)C2)ccn1 [Example 3-6],0.032,0.114,< 0.001,0.01,18,0.018,22,1250,25
O=C(Nc1nc2cccc(Cl)c2n1[C@@H]1CCCCN(C(=O)/C=C/CN2CCCC2)C1)c1ccnnc1 [Example 3-8],–,–,< 0.001,0.009,4,–,10,194,9
Cc1cc(C(=O)Nc2nc3cccc(C)c3n2[C@@H]2CCCCN(C(=O)/C=C/CN3CCCC3)C2)ccn1 [Example 3-9],–,–,< 0.001,0.008,5,–,12,590,7
Cc1cc(C(=O)Nc2nc3cccc(Cl)c3n2[C@@H]2CCCCN(C(=O)/C=C/CN3CC(F)(F)C3)C2)ccn1 [Example 3-15],0.148,7.3,0.005,0.084,40,0.111,90,4500,86
"Cc1cc(C(=O)Nc2nc3cccc(Cl)c3n2[C@@H]2CCCCN(C(=O)/C=C/CN(C)C)C2)cc(C)n1 [Example 6, (R,E)-N-(7-chloro-1-(1-(4-(dimethylamino)but-2-enoyl)azepan-3-yl)-1H-benzo[d]imidazol-2-yl)-2,6-dimethylisonicotinamide]",0.002,0.34,< 0.001,0.01,7,0.004,34,1520,16
C=CC(=O)N1CCCCC(n2c(NC(=O)c3cccc(C(F)(F)F)c3)nc3cc(C)ccc32)C1 (stereo not shown) [Example 17-1],0.011,> 10,< 0.001,0.012,14,0.081,33,730,5
C=CC(=O)N1CCC[C@@H](n2c(NC(=O)c3cccc(C(F)(F)F)c3)nc3cc(C)ccc32)C1 [Example 17-105],0.012,> 10,–,–,207,0.149,243,> 10000,27
C=CC(=O)N1CCCC[C@@H](n2c(NC(=O)c3cc(C)nc(C)c3)nc3cc(CN4CC[C@H](OC)C4)cc(C)c32)C1 [Example 17-156],–,–,< 0.001,0.001,< 1,–,2,128,< 1
C=CC(=O)N1CCCC[C@@H](n2c(NC(=O)c3cc(C)nc(C)c3)nc3cc(CN4CC[C@@H](OC)C4)cc(C)c32)C1 [Example 17-157],–,–,< 0.001,0.003,2,–,7,308,2
C/C=C/C(=O)N1CCCC[C@@H](n2c(NC(=O)c3cc(C)nc(C)c3)nc3cc(CN4CC[C@H](OC)C4)cc(C)c32)C1 [Example 17-162],–,–,0.004,0.054,23,–,145,4600,38
C/C=C/C(=O)N1CCCC[C@@H](n2c(NC(=O)c3ccnc(C)c3)nc3cc(CN4CC[C@@H](OC)C4)cc(C)c32)C1 [Example 17-163],–,–,0.005,0.07,11,–,51,1260,43
C/C=C/C(=O)N1CCCC[C@@H](n2c(NC(=O)c3ccnc(C)c3)nc3cc(CN4CCCC4)cc(C)c32)C1 [Example 17-164],–,–,0.005,0.055,9,–,73,2270,58
C/C=C/C(=O)N1CCCC[C@@H](n2c(NC(=O)c3cc(C)nc(C)c3)nc3cc(CN4CC[C@H](F)C4)cc(C)c32)C1 [Example 17-165],–,–,0.004,0.054,31,–,50,4500,39
COc1cccc2nc(NC(=O)c3ccnc(C)c3)n([C@@H]3CCCCN(C(=O)/C=C/CN(C)C)C3)c12 [Example 17-176],–,–,< 0.001,0.018,4,–,20,870,14
COc1cc2nc(NC(=O)c3ccnc(C)c3)n([C@@H]3CCCCN(C(=O)/C=C/CN(C)C)C3)c2cc1Cl [Example 17-178],–,–,0.006,0.097,38,–,106,4200,117
